Test results: paper PMC6150173, “Tryptophan-Containing Cyclic Decapeptides with Activity against Plant Pathogenic Bacteria” (Molecules : A Journal of Synthetic Chemistry and Natural …, 2017)
Peptide text beside a SMILES is read from it.

Legend:
Format in all cases: cell-based
[1] = system: Xanthomonas axonopodis pv. vesicatoria 2133-2; settings: Table S1, MIC range
Procedure: (§1) Erwinia amylovora PMV6076 (Institut National de la Recherche Agronomique, Angers, France), Pseudomonas syringae pv. syringae EPS94 (Institut de Tecnologia Agroalimentària, Universitat de Girona, Spain), and Xanthomonas axonopodis pv. vesicatoria 2133-2 (Instituto Valenciano de Investigaciones Agrarias, Valencia, Spain) were used as bacterial strains. They were stored and cultivated as previously described.
(§2) The minimum inhibitory concentration (MIC) was analyzed as previously described at 0.8, 1.6, 3.1, 6.2, 12.5, 25 and 50 μM [20].

[2] = system: erythrocyte suspensions of human blood; test: Hemolytic activity, hemoglobin release; settings: human blood erythrocytes 5% v/v, absorbance 540 nm, percentage compared to melittin, three replicates; for Hemolysis (%) at 50 µM: peptide 50 μM (table prints 50 µM); for Hemolysis (%) at 125 µM: peptide 125 μM (table prints 125 µM)
Procedure: The hemolytic activity of the compounds was evaluated at 50 and 125 μM by determining hemoglobin release from erythrocyte suspensions of human blood (5% v/v) (Oxoid) using absorbance at 540 nm, as previously described. Three replicates for each peptide concentration were used.

[3] = system: Pseudomonas syringae pv. syringae EPS94; test: Antibacterial activity (MIC), in vitro growth inhibition; settings: Table S1, MIC range
Procedure: as §1, §2

[4] = system: Erwinia amylovora PMV6076; test: as above; settings: Table S1, MIC range
Procedure: as §1, §2

Structure (SMILES) | MIC Xav [1] [µM] | Hemolysis (%) at 50 µM [2] [%] | Hemolysis (%) at 125 µM [2] [%] | MIC Pss [3] [µM] | MIC Ea [4] [µM]
CC(C)C[C@@H]1NC(=O)[C@H](CCCCN)NC(=O)[C@H](CCCCN)NC(=O)[C@H](CCCCN)NC(=O)[C@H](CCCCN)NC(=O)[C@H](CCC(N)=O)NC(=O)[C@H](CC(C)C)NC(=O)[C@H](CC(C)C)NC(=O)[C@H](CCCCN)NC(=O)[C@H](Cc2c[nH]c3ccccc23)NC1=O [BPC060W, c(KKKKLWKLLQ)] (cyclo(KKKKLWKLLQ)) | 6.2 to 12.5 | 22 | 29 | 3.1 to 6.2 | 12.5 to 25
CC(C)C[C@@H]1NC(=O)[C@H](CCCCN)NC(=O)[C@H](CCCCN)NC(=O)[C@H](CCCCN)NC(=O)[C@H](CCC(N)=O)NC(=O)[C@H](CC(C)C)NC(=O)[C@H](CC(C)C)NC(=O)[C@H](CCCCN)NC(=O)[C@H](Cc2c[nH]c3ccccc23)NC(=O)[C@H](CCCCN)NC1=O [BPC062W, c(KKKLKWKLLQ)] (cyclo(KKKLKWKLLQ)) | 6.2 to 12.5 | 3 | 4 | 3.1 to 6.2 | 12.5 to 25
CC(C)C[C@@H]1NC(=O)[C@H](CCCCN)NC(=O)[C@H](CCCCN)NC(=O)[C@H](CCC(N)=O)NC(=O)[C@H](CC(C)C)NC(=O)[C@H](CC(C)C)NC(=O)[C@H](CCCCN)NC(=O)[C@H](Cc2c[nH]c3ccccc23)NC(=O)[C@H](CCCCN)NC(=O)[C@H](CCCCN)NC1=O [BPC064W, c(KKLKKWKLLQ)] (cyclo(KKLKKWKLLQ)) | 6.2 to 12.5 | 17 | 25 | 3.1 to 6.2 | 6.2 to 12.5
CC(C)C[C@@H]1NC(=O)[C@H](CCCCN)NC(=O)[C@H](CCC(N)=O)NC(=O)[C@H](CC(C)C)NC(=O)[C@H](CC(C)C)NC(=O)[C@H](CCCCN)NC(=O)[C@H](Cc2c[nH]c3ccccc23)NC(=O)[C@H](CCCCN)NC(=O)[C@H](CCCCN)NC(=O)[C@H](CCCCN)NC1=O [BPC066W, c(KLKKKWKLLQ)] (cyclo(KKKWKLLQKL)) | 6.2 to 12.5 | 33 | 41 | 6.2 to 12.5 | 6.2 to 12.5
CC(C)C[C@@H]1NC(=O)[C@H](CCC(N)=O)NC(=O)[C@H](CC(C)C)NC(=O)[C@H](CC(C)C)NC(=O)[C@H](CCCCN)NC(=O)[C@H](Cc2c[nH]c3ccccc23)NC(=O)[C@H](CCCCN)NC(=O)[C@H](CCCCN)NC(=O)[C@H](CCCCN)NC(=O)[C@H](CCCCN)NC1=O [BPC068W, c(LKKKKWKLLQ)] (cyclo(KKKKWKLLQL)) | 1.6 to 3.1 | 6 | 7 | 6.2 to 12.5 | 25 to 50
CC(C)C[C@@H]1NC(=O)[C@H](CCCCN)NC(=O)[C@H](CCCCN)NC(=O)[C@H](Cc2c[nH]c3ccccc23)NC(=O)[C@H](CCCCN)NC(=O)[C@H](CC(C)C)NC(=O)[C@H](CC(C)C)NC(=O)[C@H](CC(C)C)NC(=O)[C@H](CC(C)C)NC(=O)[C@H](CCC(N)=O)NC1=O [BPC200W, c(LLLLKWKKLQ)] (cyclo(KKLQLLLLKW)) | 3.1 to 6.2 | 6 | 7 | > 50 | 
CC(C)C[C@@H]1NC(=O)[C@H](CCCCN)NC(=O)[C@H](CCCCN)NC(=O)[C@H](Cc2c[nH]c3ccccc23)NC(=O)[C@H](CCCCN)NC(=O)[C@H](CCCCN)NC(=O)[C@H](CCCCN)NC(=O)[C@H](CCCCN)NC(=O)[C@H](CCCCN)NC(=O)[C@H](CCC(N)=O)NC1=O [BPC202W, c(KKKKKWKKLQ)] (cyclo(KKKKKWKKLQ)) | 12.5 to 25 | 0 | 1 | 25 to 50 | 
